Reference: the supplement of paper PMC10627819

Key:
[1] = system: B. subtilis 168; test: fitness (endpoint OD595 vs no drug) (fraction); higher = more growth
How it was run: (§1)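 With the first reading as background, OD595 was measured every 30 min for 14 h in 384-well plates kept at 37 °C and inoculated at OD595 0.01. TSB, LB Lennox or CY was the medium. Fitness is the optical density at the transition into stationary phase divided by the robust mean of no-drug control wells, with a cap of 1.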

[2] = system: S. pneumoniae D39V; test: as above
How it was run: as §1

[3] = system: S. aureus DSM 20231; test: Bliss interaction score (quartile over a dose matrix) (fitness difference); higher = more antagonism (negative = synergy)
How it was run: (§2)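 Quartiles summarise the Bliss score over technical, biological and donor/recipient replicates, where the score is observed minus expected fitness under a product model. Expected fitness uses single-drug values inferred from combination data. Fitness is OD595 at entry into stationary phase over the plate's robust no-drug mean, capped at 1.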

[4] = system: S. aureus Newman; test: as above
How it was run: as §2

[5] = system: B. subtilis 168; test: as above
How it was run: as §2

[6] = system: S. pneumoniae D39V; test: as above
How it was run: as §2
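For Bliss interaction score (quartile over a dose matrix) in this document: first quartile when negative (synergy) and third quartile when positive (antagonism).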

C[C@H]1c2cccc(O)c2C(=O)C2=C(O)[C@]3(O)C(=O)C(C(N)=O)=C(O)[C@@H](N(C)C)[C@@H]3[C@@H](O)[C@@H]21 [Doxycycline] + CN(N=O)C(=O)N[C@@H](C=O)[C@@H](O)[C@H](O)[C@H](O)CO [Streptozotocin]
Details | fitness
[1], first compound 0.02 µg/mL, partner 0.15 µg/mL | 0.917
[1], first compound 0.02 µg/mL, partner 0.3 µg/mL | 0.97
[1], first compound 0.02 µg/mL, partner 0.6 µg/mL | 0.901
[1], first compound 0.04 µg/mL, partner 0.15 µg/mL | 0.773
[1], first compound 0.04 µg/mL, partner 0.3 µg/mL | 0.789
[1], first compound 0.04 µg/mL, partner 0.6 µg/mL | 0.786
[1], first compound 0.08 µg/mL, partner 0.3 µg/mL | 0.538
[1], first compound 0.08 µg/mL, partner 0.6 µg/mL | 0.531
[2], first compound 0.0155 µg/mL, partner 1.2 µg/mL | 0.919
[2], first compound 0.0155 µg/mL, partner 2.4 µg/mL | 0.896
[2], first compound 0.0155 µg/mL, partner 4.8 µg/mL | 0.914
[2], first compound 0.031 µg/mL, partner 1.2 µg/mL | 0.837
[2], first compound 0.031 µg/mL, partner 2.4 µg/mL | 0.847
[2], first compound 0.031 µg/mL, partner 4.8 µg/mL | 0.822
[2], first compound 0.062 µg/mL, partner 1.2 µg/mL | 0.754
[2], first compound 0.062 µg/mL, partner 2.4 µg/mL | 0.761
[2], first compound 0.062 µg/mL, partner 4.8 µg/mL | 0.71

fitness, [2], one replicate
Details | partner 1.2 µg/mL | partner 2.4 µg/mL | partner 4.8 µg/mL
first compound 0.003875 µg/mL | 0.989 | 0.971 | 0.984
first compound 0.00775 µg/mL | 0.926 | 0.913 | 0.933

Details | Bliss interaction score
[3] | 0.0373
[4] | 0.0413
[5] | 0.0094
[6] | -0.0474

C[C@H]1c2cccc(O)c2C(=O)C2=C(O)[C@]3(O)C(=O)C(C(N)=O)=C(O)[C@@H](N(C)C)[C@@H]3[C@@H](O)[C@@H]21 [Doxycycline] + CC1=C\[C@@H](O)CC(=O)Cc2nc(co2)C(=O)N2CCC=C2C(=O)O[C@H](C(C)C)[C@H](C)/C=C/C(=O)NC\C=C\1 [Virginiamycin M1]
fitness
Details | first compound 0.0155 µg/mL | first compound 0.02 µg/mL | first compound 0.031 µg/mL | first compound 0.04 µg/mL | first compound 0.062 µg/mL | first compound 0.08 µg/mL
[1], partner 0.0625 µg/mL | – | 0.898 | – | 0.805 | – | 0.572
[1], partner 0.125 µg/mL | – | 0.899 | – | 0.726 | – | 0.458
[1], partner 0.25 µg/mL | – | 0.936 | – | 0.806 | – | 0.491
[2], partner 0.5 µg/mL | 0.968 | – | 0.902 | – | 0.813 | –
[2], partner 1 µg/mL | 0.998 | – | 0.847 | – | 0.831 | –
[2], partner 2 µg/mL | 0.904 | – | 0.794 | – | 0.758 | –

[2], one replicate
Details | fitness
first compound 0.003875 µg/mL, partner 0.5 µg/mL | ≥ 1
first compound 0.003875 µg/mL, partner 1 µg/mL | ≥ 1
first compound 0.003875 µg/mL, partner 2 µg/mL | ≥ 1
first compound 0.00775 µg/mL, partner 0.5 µg/mL | 0.995
first compound 0.00775 µg/mL, partner 1 µg/mL | ≥ 1
first compound 0.00775 µg/mL, partner 2 µg/mL | ≥ 1
first compound 0.0155 µg/mL, partner 0.15 µg/mL | 0.887
first compound 0.0155 µg/mL, partner 0.3 µg/mL | 0.823
first compound 0.031 µg/mL, partner 0.15 µg/mL | 0.878
first compound 0.031 µg/mL, partner 0.3 µg/mL | 0.819
first compound 0.062 µg/mL, partner 0.15 µg/mL | 0.793
first compound 0.062 µg/mL, partner 0.3 µg/mL | 0.762

Details | Bliss interaction score
[3] | -0.151
[4] | -0.0791
[5] | 0.0353
[6] | 0.0434

C[C@H]1c2cccc(O)c2C(=O)C2=C(O)[C@]3(O)C(=O)C(C(N)=O)=C(O)[C@@H](N(C)C)[C@@H]3[C@@H](O)[C@@H]21 [Doxycycline] + C[n+]1ccc(-c2cc[n+](C)cc2)cc1 [Paraquat]
Details | fitness
[1], first compound 0.02 µg/mL, partner 1.25 µg/mL | 0.905
[1], first compound 0.02 µg/mL, partner 2.5 µg/mL | 0.86
[1], first compound 0.02 µg/mL, partner 5 µg/mL | 0.885
[1], first compound 0.04 µg/mL, partner 1.25 µg/mL | 0.828
[1], first compound 0.04 µg/mL, partner 2.5 µg/mL | 0.839
[1], first compound 0.04 µg/mL, partner 5 µg/mL | 0.772
[1], first compound 0.08 µg/mL, partner 1.25 µg/mL | 0.568
[2], first compound 0.0155 µg/mL, partner 1.5 µg/mL | 0.979
[2], first compound 0.0155 µg/mL, partner 3 µg/mL | 0.975
[2], first compound 0.0155 µg/mL, partner 6 µg/mL | 0.978
[2], first compound 0.031 µg/mL, partner 1.5 µg/mL | 0.923
[2], first compound 0.031 µg/mL, partner 3 µg/mL | 0.877
[2], first compound 0.031 µg/mL, partner 6 µg/mL | 0.898
[2], first compound 0.062 µg/mL, partner 1.5 µg/mL | 0.845
[2], first compound 0.062 µg/mL, partner 3 µg/mL | 0.841
[2], first compound 0.062 µg/mL, partner 6 µg/mL | 0.806

fitness, [2], one replicate
Details | partner 1.5 µg/mL | partner 3 µg/mL | partner 6 µg/mL
first compound 0.003875 µg/mL | ≥ 1 | ≥ 1 | ≥ 1
first compound 0.00775 µg/mL | ≥ 1 | 0.962 | 0.986

Details | Bliss interaction score
[3] | 0.0382
[4] | -0.019
[5] | 0.0932
[6] | 0.036

C[C@H]1c2cccc(O)c2C(=O)C2=C(O)[C@]3(O)C(=O)C(C(N)=O)=C(O)[C@@H](N(C)C)[C@@H]3[C@@H](O)[C@@H]21 [Doxycycline] + Cc1cc(NS(=O)(=O)c2ccc(N)cc2)no1 [Sulfamethoxazol]
one replicate
Details | fitness
[1], first compound 0.02 µg/mL, partner 0.5 µg/mL | 0.829
[1], first compound 0.04 µg/mL, partner 0.5 µg/mL | 0.72
[1], first compound 0.08 µg/mL, partner 0.5 µg/mL | 0.456
[2], first compound 0.003875 µg/mL, partner 1 µg/mL | ≥ 1
[2], first compound 0.003875 µg/mL, partner 2 µg/mL | ≥ 1
[2], first compound 0.003875 µg/mL, partner 4 µg/mL | ≥ 1
[2], first compound 0.00775 µg/mL, partner 1 µg/mL | 0.961
[2], first compound 0.00775 µg/mL, partner 2 µg/mL | 0.967
[2], first compound 0.00775 µg/mL, partner 4 µg/mL | 0.963

fitness
Details | first compound 0.0155 µg/mL | first compound 0.02 µg/mL | first compound 0.031 µg/mL | first compound 0.04 µg/mL | first compound 0.062 µg/mL | first compound 0.08 µg/mL
[1], partner 1 µg/mL | – | 0.856 | – | 0.718 | – | 0.485
[1], partner 2 µg/mL | – | 0.818 | – | 0.702 | – | 0.424
[1], partner 4 µg/mL | – | 0.876 | – | 0.76 | – | 0.528
[2], partner 1 µg/mL | 0.929 | – | 0.848 | – | 0.755 | –
[2], partner 2 µg/mL | 0.939 | – | 0.859 | – | 0.779 | –
[2], partner 4 µg/mL | 0.897 | – | 0.81 | – | 0.77 | –

Details | Bliss interaction score
[3] | -0.0457
[4] | -0.0242
[5] | -0.0451
[6] | -0.0349

C[C@H]1c2cccc(O)c2C(=O)C2=C(O)[C@]3(O)C(=O)C(C(N)=O)=C(O)[C@@H](N(C)C)[C@@H]3[C@@H](O)[C@@H]21 [Doxycycline] + O=C(O[C@@H]1Cc2c(O)cc(O)cc2O[C@@H]1c1cc(O)c(O)c(O)c1)c1cc(O)c(O)c(O)c1 [EGCG]
Details | fitness
[1], first compound 0.02 µg/mL, partner 6.25 µg/mL | 0.901
[1], first compound 0.04 µg/mL, partner 6.25 µg/mL | 0.767
[1], first compound 0.08 µg/mL, partner 6.25 µg/mL | 0.53
[1], first compound 0.08 µg/mL, partner 12.5 µg/mL | 0.315
[1], first compound 0.08 µg/mL, partner 25 µg/mL | 0.0902
[2], first compound 0.0155 µg/mL, partner 12.5 µg/mL | 0.85
[2], first compound 0.0155 µg/mL, partner 25 µg/mL | 0.864
[2], first compound 0.0155 µg/mL, partner 50 µg/mL | 0.881
[2], first compound 0.031 µg/mL, partner 25 µg/mL | 0.755

fitness, [2], one replicate
Details | partner 12.5 µg/mL | partner 25 µg/mL | partner 50 µg/mL
first compound 0.003875 µg/mL | 0.954 | 0.985 | 0.995
first compound 0.00775 µg/mL | 0.919 | 0.966 | 0.964

Details | Bliss interaction score
[3] | 0.0387
[4] | 0.088
[5] | 0.147
[6] | -0.0707
